In PMC10824152 (Journal of medicinal chemistry, 2023):

Experiments:
human nNOS = human nNOS (Homo sapiens, UniProt P29475); conditions: ratio of Ki values versus 17
rat nNOS = rat nNOS (Rattus norvegicus, UniProt P29476)

Row | Structure (SMILES) | Lower potency than 17, human nNOS (human nNOS) [fold] | Loss in potency as compared to 17, rat nNOS (rat nNOS) [fold]
1 | CN(C)CCc1cc(F)c(F)c(CCc2cc(C(F)F)cc(N)n2)c1.Cl.Cl [Compound 23, 4-(Difluoromethyl)-6-(5-(2-(dimethylamino)ethyl)-2,3-difluorophenethyl)pyridin-2-amine dihydrochloride] | 14 | 
2 | Cc1cc(CCc2cc(CCN(C)C)cc(F)c2F)nc(N)n1.Cl.Cl [Compound 19, 4-(5-(2-(Dimethylamino)ethyl)-2,3-difluorophenethyl)-6-methylpyrimidin-2-amine dihydrochloride] |  | 438
3 | COc1cc(N)nc(CCc2cc(CCN(C)C)cc(F)c2F)c1.Cl.Cl [Compound 18, 6-(5-(2-(Dimethylamino)ethyl)-2,3-difluorophenethyl)-4-methoxypyridin-2-amine dihydrochloride] |  | 5
